Laboratory results from article PMC5825169 (PLoS Pathogens, 2018).
Several values for one entry are separate records, joined by “and”; a condition that tells them apart may be missing. Equal entries are not always repeated. Entries after “also recorded” stand apart in the source; their conditions may differ. Where two headings read alike, the source gives them in different places.

Key:
[1] = molecular target: T1, RbmC2 β-prism domain (Vibrio cholerae, UniProt Q9KTH2); assay: biochemical; type: binding
[2] = molecular target: RbmC1 β-prism domain (Vibrio cholerae, UniProt Q9KTH2); assay: biochemical; type: binding
[3] = molecular target: T2, VCC β-prism lectin domain (Vibrio cholerae serotype O1, UniProt P09545); assay: biochemical; type: binding
[4] = molecular target: T2, VCC β-prism lectin domain; settings: read-out: VCC β-prism affinity; cited from earlier work
[5] = molecular target: T2, VCC β-prism lectin domain; assay: biochemical; type: binding; remark: listed apart in the source
[6] = molecular target: T1, RbmC2 β-prism domain; assay: biochemical; type: binding; settings: RbmC2 β-prism affinity
[7] = molecular target: RbmC2-GFPUV fusion (Vibrio cholerae El Tor strain N16961); assay: ITC
[8] = molecular target: RbmC1-GFPUV fusion (Vibrio cholerae El Tor strain N16961); assay: ITC

CC(=O)N[C@H]1[C@H](O[C@@H]2C(O)O[C@H](CO)[C@@H](O)[C@@H]2O)O[C@H](CO)[C@@H](O)[C@@H]1O (stereo partly drawn) [GlcNAc-Man, N-acetylglucosaminyl-β-1,2-mannose]
Kd ([1]; RbmC2 β-prism affinity): 159 µM

CC(=O)N[C@H]1C(O)O[C@H](CO)[C@@H](O[C@@H]2O[C@H](CO)[C@H](O)[C@H](O)[C@H]2O)[C@@H]1O (stereo partly drawn) [LacNAc, N-acetyl-D-lactosamine]
RbmC2 β-prism binding [1]: Did not bind; also recorded: unable to observe binding
RbmC1 β-prism binding [2]: Did not bind; also recorded: unable to observe binding
VCC β-prism binding [3]: Did not bind; also recorded: unable to detect binding

OC[C@H]1O[C@H](OC[C@H]2OC(O)[C@@H](O)[C@@H](O[C@H]3O[C@H](CO)[C@@H](O)[C@H](O)[C@@H]3O)[C@@H]2O)[C@@H](O)[C@@H](O)[C@@H]1O (stereo partly drawn) [Mannotriose, 1,3-α-1,6-α-D-mannotriose]
Kd ([1]; RbmC2 β-prism affinity): 4.1 µM
Kd ([2]; RbmC1 β-prism affinity): 0.6 µM
Kd [3]: 229 µM

CO[C@H]1O[C@H](CO)[C@@H](O)[C@H](O)[C@@H]1O [Me-α-mannose, methyl α-D-mannopyranoside]
Kd [4]: 2700 µM
Kd ([1]; RbmC2 β-prism affinity): 179 µM and 503 µM
Kd ([2]; RbmC1 β-prism affinity): 503 µM and 179 µM

CC(=O)N[C@H]1[C@H](O[C@H]2[C@H](O)[C@@H](NC(C)=O)C(O)O[C@@H]2CO)O[C@H](CO)[C@@H](O[C@@H]2O[C@H](CO[C@H]3O[C@H](CO)[C@@H](O)[C@H](O)[C@@H]3O[C@@H]3O[C@H](CO)[C@@H](O)[C@H](O)[C@H]3NC(C)=O)[C@@H](O)[C@H](O[C@H]3O[C@H](CO)[C@@H](O)[C@H](O)[C@@H]3O[C@@H]3O[C@H](CO)[C@@H](O)[C@H](O)[C@H]3NC(C)=O)[C@@H]2O)[C@@H]1O (some centres unmarked) [NGA2, GlcNAcβ1-2Manα1-6(GlcNAcβ1-2Manα1–3)Manβ1-4GlcNAcβ1-4GlcNAc]
Kd [5]: 0.2 µM
Kd [6]: 0.0015 ± 0.0005 µM

CC(=O)N[C@H]1[C@H](O[C@@H]2[C@@H](OC[C@H]3OC(O)[C@@H](O)[C@@H](O[C@H]4O[C@H](CO)[C@@H](O)[C@H](O)[C@@H]4O[C@@H]4O[C@H](CO)[C@@H](O)[C@H](O)[C@H]4NC(C)=O)[C@@H]3O)O[C@H](CO)[C@@H](O)[C@@H]2O)O[C@H](CO)[C@@H](O)[C@@H]1O (some centres unmarked) [Pentasaccharide, N-linked core pentasaccharide]
Kd [6]: 0.0011 µM and 0.0015 µM

Asialofetuin
Kd ([1]; read-out: RbmC2 β-prism affinity (apparent)): 0.0184 µM
Kd ([2]; read-out: RbmC1 β-prism affinity (apparent)): 0.0159 µM

B1: bovine asialofetuin (natural protein)
chain: IPLDPVAGYKEPACDDPDTEQAALAAVDYINKHLPRGYKHTLNQIDSVKVWPRRPTGEVYDIEIDTLETTCHVLDPTPLANCSVRQQTQHAVEGDCDIHVLKQDGQFSVLFTKCDSSPDSAEDVRKLCPDCPLLAPLNDSRVVHAVEVALATFNAESNGSYLQLVEISRAQFVPLPVSVSVEFAVAATDCIAKEVVDPTKCNLLAEKQYGFCKGSVIQKALGGEDVRVTCTLFQTQPVIPQPQPDGAEAEAPSAVPDAAGPTPSAAGPPVASVVVGPSVVAVPLPLHRAHYDLRHTFSGVASVESSSGEAFHVGKTPIVGQPSIPGGPVRLCPGRIRYFKI
modifications: three glycosylation sites occupied by heterogeneous mixtures of bi- and tri-antennary glycans (asialo form)
Kd [7]: 0.0184 µM
Kd [8]: 0.0159 µM
